Assay results published in patent US20140357487A1, “PLANTS HAVING INCREASED TOLERANCE TO HERBICIDES” (BASF SE, priority 2011, published 2014).

Columns and labels:
Alopecurus HPPD = test: HPPD activity assay, Alopecurus HPPD; format: biochemical; conditions: normalized on Arabidopsis wild-type HPPD
Method: (§1) HPPD produces homogentisic acid and CO2 from 4-hydroxyphenylpyruvate (4-HPP) and O2. The activity assay for HPPD is based on the analysis of homogentisic acid by reversed phase HPLC.
(§2) The assay mixture can contain 150 mM potassium phosphate buffer pH 7.0, 50 mM L-ascorbic acid, 1 μM FeSO4 and 7 μg of purified enzyme in a total volume of 1 ml.
Inhibitors are dissolved in DMSO (dimethylsulfoxide) to a concentration of 20 mM or 0.5 mM, respectively. From this stock solution serial five-fold dilutions are prepared in DMSO, which are used in the assay. The respective inhibitor solution accounts for 1% of the assay volume. Thus, final inhibitor concentrations range from 200 μM to 2.5 nM or from 5 μM to 63 pM, respectively. After a preincubation of 30 min the reaction is started by adding 4-HPP to a final concentration of 0.1 mM. The reaction is allowed to proceed for 120 min at room temperature. The reaction is stopped by addition of 100 μl of 4.5 M phosphoric acid.
Activities are normalized by setting the uninhibited enzyme activity to 100%. IC50 values are calculated using non-linear regression.
The assay mixture can contain 150 mM potassium phosphate buffer pH 7.0, 50 mM L-ascorbic acid, 100 μM Catalase (Sigma-Aldrich), 1 μM FeSO4 and 0.2 units of purified HPPD enzyme in a total volume of 505 μl. […]
(§3) Inhibitors are dissolved in DMSO (dimethylsulfoxide) to a concentration of 0.5 mM. […] IC50 values are calculated using non-linear regression.
Using methods which are described in the above examples or well known in the art, purified, recombinant wildtype HPPD enzymes are characterized with respect to their kinetic properties and sensitivity towards HPPD inhibiting herbicides. Apparent michaelis constants (Km) and maximal reaction velocities (Vmax) are calculated by non-linear regression with the software GraphPad Prism 5 (GraphPad Software, La Jolla, USA) using a substrate inhibition model. […] Weighted means (by standard error) of Km and […] values are calculated from at least three independent experiments. […]

[1] = system: corn plants, wild type (transgene none); test: Greenhouse testing of corn plants, wild type; format: in vivo, Zea mays; conditions: 5 days after herbicide treatment
From the text: Various methods for the production of stably transformed plants are well known in the art. Coumarone-derivative herbicide tolerant soybean (Glycine max) or corn (Zea mays) plants can be produced by a method described by Olhoft et al. (US patent 2009/0049567). Briefly, HPPD or HST encoding polynucleotides are cloned into a binary vector using standard cloning techniques as described by Sambrook et al. (Molecular cloning (2001) Cold Spring Harbor Laboratory Press). The final vector construct contains an HPPD or HST encoding sequence flanked by a promoter sequence (e.g. the ubiquitin promoter (PcUbi) sequence) and a terminator sequence (e.g. the nopaline synthase terminator (NOS) sequence) and a resistance marker gene cassette (e.g. AHAS) (FIG. 2). Optionally, the HPPD or HST gene can provide the means of selection. Agrobacterium-mediated transformation is used to introduce the DNA into soybean's axillary meristem cells at the primary node of seedling explants. After inoculation and co-cultivation with Agrobacteria, the explants are transferred to shoot induction medium without selection for one week. The explants are subsequently transferred to shoot induction medium with 1-3 μM imazapyr (Arsenal) for 3 weeks to select for transformed cells. Explants with healthy callus/shoot pads at the primary node are then transferred to shoot elongation medium containing 1-3 μM imazapyr until a shoot elongates or the explant dies. After regeneration, transformants are transplanted to soil in small pots, placed in growth chambers (16 hr day/8 hr night; 25° C. day/23° C. night; 65% relative humidity; 130-150 mE m−2 s−1) and subsequently tested for the presence of the T-DNA via Taqman analysis. After a few weeks, healthy, transgenic positive, single copy events are transplanted to larger pots and allowed to grow in the growth chamber. Transformation of corn plants is done by a method described by McElver and Singh (WO 2008/124495). Plant transformation vector constructs containing HPPD or HST sequences are introduced into maize immature embryos via Agrobacterium-mediated transformation. Transformed cells are selected in selection media supplemented with 0.5-1.5 μM imazethapyr for 3-4 weeks. Transgenic plantlets are regenerated on plant regeneration media and rooted afterwards. Transgenic plantlets are subjected to TaqMan analysis for the presence of the transgene before being transplanted to potting mixture and grown to maturity in greenhouse. Arabidopsis thaliana is transformed with HPPD or HST sequences by floral dip method as described by McElver and Singh (WO 2008/124495). Transgenic Arabidopsis plants are subjected to Tag Man analysis for analysis of the number of integration loci. Transformation of Oryza sativa (rice) are done by protoplast transformation as described by Peng et al. (U.S. Pat. No. 6,653,529)
Transgenic plants expressing heterologous HPPD or HST enzymes are tested for tolerance against coumarone-derivative herbicides in greenhouse experiments.
For post emergence treatment, the test plants are first grown to a height of 3 to 15 cm, depending on the plant habit, and only then treated with the herbicides. For this purpose, the test plants are either sown directly and grown in the same containers, or they are first grown separately and transplanted into the test containers a few days prior to treatment.
Depending on the species, the plants are kept at 10-25° C. or 20-35° C. The test period extends over 3 weeks. During this time, the plants are tended and their response to the individual treatments is evaluated. […] Tolerance to coumarone-derivative herbicides can also be assessed in Arabidopsis. In this case transgenic Arabidopsis thaliana plants are assayed for improved tolerance to coumarone-derivative herbicides in 48-well plates. Seeds are surface sterilized by stirring for 5 min in ethanol+water (70+30 by volume), rinsing one time with ethanol+water (70+30 by volume) and two times with a sterile, deionized water. […]

Rhodococcus HPPD1 = test: HPPD activity assay, Rhodococcus HPPD1; format: biochemical; conditions: normalized on Arabidopsis wild-type HPPD
Method: as §1, §2
Inhibitors are dissolved in DMSO (dimethylsulfoxide) to a concentration of 20 mM or 0.5 mM, respectively. From this stock solution serial five-fold dilutions are prepared in DMSO, which are used in the assay. The respective inhibitor solution accounts for 1% of the assay volume. […]
Activities are normalized by setting the uninhibited enzyme activity to 100%. IC50 values are calculated using non-linear regression. […]
as §3
Using methods which are described in the above examples or well known in the art, purified, recombinant wildtype HPPD enzymes are characterized with respect to their kinetic properties and sensitivity towards HPPD inhibiting herbicides. Apparent michaelis constants (Km) and maximal reaction velocities (Vmax) are calculated by non-linear regression with the software GraphPad Prism 5 (GraphPad Software, La Jolla, USA) using a substrate inhibition model. […]

CC1(C)c2cccnc2C(O)=C(c2ccc(Cl)nc2Cl)S1(=O)=O [Inhibitor 2, 7-(2,6-dichloro-3-pyridyl)-5,5-dimethyl-6,6-dioxo-thiopyrano[4,3-b]pyridin-8-ol]
Normalized tolerance index TI (Alopecurus HPPD): 1.4
Injury evaluation, scale of 1-100, bleaching phenotype ([1]; 2.5 g/ha): 20
Injury evaluation, scale of 1-100, bleaching phenotype ([1]; 10 g/ha): 45
Injury evaluation, scale of 1-100, bleaching phenotype ([1]; 40 g/ha): 33

Cc1c(C(=O)c2cnn(C)c2O)ccc(S(C)(=O)=O)c1C1=NOCC1 [Topramezone, reference compound]
Injury evaluation, scale of 1-100, bleaching phenotype ([1]; 6.25 g/ha): 0
Injury evaluation, scale of 1-100, bleaching phenotype ([1]; 25 g/ha): 0
Injury evaluation, scale of 1-100, bleaching phenotype ([1]; 100 g/ha): 0

COCCOCc1c(Cl)ccc(C2=C(O)c3ncccc3C(C)(C)S2(=O)=O)c1Cl [Inhibitor 3, 7-[2,4-dichloro-3-(2-methoxyethoxymethyl)phenyl]-5,5-dimethyl-6,6-dioxo-thiopyrano[4,3-b]pyridin-8-ol]
Normalized tolerance index TI (Rhodococcus HPPD1): 1.6

CC1=NOC(c2c(Cl)ccc(C3=C(O)c4ncccc4C(C)(C)S3(=O)=O)c2Cl)C1 (stereo not shown) [Inhibitor 1, 7-[2,4-dichloro-3-(3-methyl-4,5-dihydroisoxazol-5-yl)phenyl]-5,5-dimethyl-6,6-dioxo-thiopyrano[4,3-b]pyridin-8-ol]
Normalized tolerance index TI (Alopecurus HPPD): 2.5
Normalized tolerance index TI (Rhodococcus HPPD1): 39
